Source: US5624923A, “Tricyclic diazepine vasopressin antagonists and oxytocin antagonists” (priority 1995, dated 1997)

What was measured:
Vasopressin V2 = Vasopressin V2 Antagonist Activity in Conscious Hydrated Rats; type: in vivo, rat; details: AVP 0.4 μg/kg i.p.
Procedure: Vasopressin V2 Antagonist Activity in Conscious Hydrated Rats
Conscious hydrated rats are treated with compounds under study from 0.1 to 100 mg/kg orally or vehicle. Two to four rats are used for each compound. One hour later, arginine vasopressin (AVP, antidiuretic hormore, ADH) dissolved in peanut oil is administered at 0.4 μg/kg intraperitoneally. Two rats in each test would not receive arginine vasopressin but only the vehicle (peanut oil) to serve as water-loading control. Twenty minutes later each rat is given 30 mL/kg of deionized water orally by gavage and is placed individually in a metabolic cage equipped with a funnel and a graduated glass cylinder to collect urine for four hours. Urine volume is measured and osmolality analyzed by use of a Fiske One-Ten osmometer (Fiske Assoc., Norwood, Mass., USA). Urinary sodium, potassium, and chloride are analyzed by use of ion-specific electrodes in a Beckman E3 (Electrolyte 3) Analyzer.

oxytocin receptors = biological target: T1, oxytocin receptors (Rattus norvegicus, UniProt P70536); assay: Oxytocin Receptor Binding; details: for IC50: 1.0 nM [3H]oxytocin
T1 construct: The uteri are dissected out, cleaned of fat and connective tissues; from tissue; host or cells: uterus of DES-treated female Sprague-Dawley rats
T1 sequence (P70536 1-388): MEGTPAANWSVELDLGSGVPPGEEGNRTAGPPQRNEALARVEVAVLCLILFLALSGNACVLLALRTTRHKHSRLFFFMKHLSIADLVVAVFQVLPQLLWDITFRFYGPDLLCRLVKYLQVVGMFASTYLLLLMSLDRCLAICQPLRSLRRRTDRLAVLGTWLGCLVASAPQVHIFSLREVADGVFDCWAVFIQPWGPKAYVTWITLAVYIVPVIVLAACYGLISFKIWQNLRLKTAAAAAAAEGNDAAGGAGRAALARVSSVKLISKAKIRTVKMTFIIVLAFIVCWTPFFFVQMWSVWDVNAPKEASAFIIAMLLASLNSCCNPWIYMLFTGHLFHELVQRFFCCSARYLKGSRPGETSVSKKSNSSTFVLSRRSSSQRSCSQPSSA
Procedure: Oxytocin Receptor Binding
Female Sprague-Dawley rats weighing approximately 200-250 g are injected intramuscularly (i.m.) with 0.3 mg/kg of body weight of diethylstilbestrol (DES). The rats are sacrificed 18 hours later under pentobarbital anesthesia. The uteri are dissected out, cleaned of fat and connective tissues and rinsed in 50 ml of normal saline. The tissue pooled from six rats is homogenized in 50 ml of […] Tris.HCl, containing 0.5 mM dithiothreitol and 1.0 mM EDTA, adjusted to pH 7.4, using a polytron at setting 6 with three passes of 10 sec each. The homogenate is passed through two (2) layers of cheesecloth and the filtrate centrifuged at 1000× g for 10 min. The clear supernatant is removed and recentrifuged at 165,000× g for 30 min. The resulting pellet containing the oxytocin receptors is resuspended in 50.0 mM Tris.HCl containing 5.0 mM MgCl2 at pH 7.4, to give a protein concentration of 2.5 mg/ml of tissue suspension. This preparation is used in subsequent binding assays with [^3 H]Oxytocin.
Binding of 3,5-[^3 H]Oxytocin ([^3 H]OT) to its receptors is done in microtiter plates using [^3 H]OT, at various concentrations, in an assay buffer of 50.0 mM Tris.HCl, pH 7.4 and containing 5.0 mM MgCl2, and a mixture of protease inhibitors: BSA, 0.1 mg; aprotinin, 1.0 mg; 1,10-phenanthroline, 2.0 mg; […], 10.0 mg; and PMSF, 0.3 mg per 100 ml of buffer solution. Non-specific binding is determined in the presence of 1.0 uM unlabeled OT. The binding reaction is terminated after 60 min , at 22° C. by rapid filtration through glass fiber filters using a Brandel® cell harvester (Biomedical Research and Development Laboratories, Inc., Gaithersburg, Md.). Competition experiments are conducted at equilibrium using 1.0 nM [^3 H]OT and varying the concentration of the displacing agents. The concentrations of agent displacing 50% of [^3 H]OT at its sites (IC50) are calculated by a computer assisted LUNDON-2 program (LUNDON SOFTWARE INC., Ohio, USA).

Vasopressin V1 = Vasopressin V1 Antagonist Activity in Conscious Rats (vasopressin vasopressor response); type: in vivo, rat; details: 10 mg/kg i.v.
Procedure: Vasopressin V1 Antagonist Activity in Conscious Rats
Conscious rats are restrained in a supine position with elastic tape. The area at the base of the tail is locally anesthetized by subcutaneous infiltration with 2% procaine (0.2 ml). Using aseptic technique the ventral caudal tail artery is isolated and a cannula made of PE 10 and 20 (heat-fused) tubing is passed into the lower abdominal aorta. The cannula is secured, heparinized (1000 i.u./cc), sealed and the wound closed with one or two stitches of Dexon 4-0. The caudal vein is also cannulated in the same manner for intravenous drug administration. The duration of the surgery is approximately 5 minutes. Additional local anesthesia (2% procaine or lidocaine) is provided as needed.
The animals are placed in plastic restraining cages in an upright position. The cannula is attached to a Statham P23Db pressure transducer and pulsatile blood pressure is recorded. […] The vasopressin injections are repeated 30,60,90,120,180,240 and 300 min. later. Percentage of antagonism by the compound is calculated using the pre-drug vasopressin vasopressor response as 100%.

IC50 (oxytocin receptors) [µM]	inhibition at 10 µM (oxytocin receptors; dose 10 μM, [3H]oxytocin) [%]	Molecule	further results
0.033	93	Cc1ccc(F)cc1C(=O)Nc1ccc(C(=O)N2Cc3cccn3Cc3ccccc32)cc1 [Example 465, N-[4-(5H-Pyrrolo[2,1-c][1,4]benzodiazepin-10(11H)-ylcarbonyl)phenyl]-5-fluoro-2-methylbenzamide]	Osmolality (Vasopressin V2; 10 mg/kg orally): 361 mOsm/kg; Urine Volume (Vasopressin V2; 10 mg/kg orally): 21.8 ml/4 hrs; Max. % Inhibition (Vasopressin V1): 85%; Time (of max. % inhibition) (Vasopressin V1): 90 min
0.57	–	N-[4-(4H-Pyrazolo[5,1-c][1,4]benzo-diazepin-5(10H)-ylcarbonyl)phenyl]-2-methoxybenzeneacetamide [Example 215]	Osmolality (Vasopressin V2; 30 mg/kg orally): 1520 mOsm/kg; Urine Volume (Vasopressin V2; 30 mg/kg orally): 0.7 ml/4 hrs; % Inhibition at 10 μM (oxytocin receptors; dose 10 μM, [3H]oxytocin): 74%
–	12	Cc1ccccc1C(=O)Nc1ccc(C(=O)O)cc1Cl [Example 433, 4-[(2-methylbenzoyl)amino]-3-chloro-benzoic acid]	–
–	11	O=C(O)c1ccc(NC(=O)c2ccc(Cl)cc2Cl)cc1Cl [Example 429, 4-[(2,4-Dichlorobenzoyl)amino]-2-chlorobenzoic acid]	–
2.4	71	CCOC(=O)c1ccc2n1Cc1ccccc1N(C(=O)c1ccc(N)cc1)C2 [Example 464, ethyl 10,11-dihydro-10-(4-aminobenzoyl)-5H-pyrrolo[2,1-c][1,4]benzodiazepine-3-carboxylate]	–
–	21	Cc1ccc(F)cc1C(=O)Nc1ccc(C(=O)O)cc1 [Example 417, 4-[(5-Fluoro-2-methylbenzoyl)amino]benzoic acid]	–
–	22	O=C(c1ccc([N+](=O)[O-])cc1Cl)N1Cc2ccc(C(=O)C(Cl)(Cl)Cl)n2Cc2ccccc21 [Example 450, 10,11-dihydro-10-(2-chloro-4-nitro-benzoyl)-[3-(trichloroacetyl)]-5H-pyrrolo[2,1-c][1,4]benzodiazepine]	–
4	86	CCOC(=O)c1ccc2n1Cc1ccccc1N(C(=O)c1ccc(NC(=O)c3ccc(Cl)cc3Cl)cc1)C2 [Example 596, Ethyl 10-[4-[(2,4-dichlorobenzoyl)amino]benzoyl]-10,11-dihydro-5H-pyrrolo[2,1-c][1,4]benzodiazepine-3-carboxylate]	Osmolality (Vasopressin V2; 10 mg/kg orally): 1347 mOsm/kg; Urine Volume (Vasopressin V2; 10 mg/kg orally): 2.8 ml/4 hrs
–	18	Cc1ccccc1C(=O)Nc1c(C)cc(C(=O)O)cc1C [Example 431, 4-[(2-methylbenzoyl)amino]-3,5-di-methylbenzoic acid]	–
–	14	O=C(c1ccc([N+](=O)[O-])cc1)N1Cc2ccc(C(=O)C(Cl)(Cl)Cl)n2Cc2ccccc21 [Example 449, 10,11-dihydro-10-(4-nitrobenzoyl)-[3-(trichloroacetyl)]-5H-pyrazolo[2,1-c]-[1,4]benzodiazepine]	–
–	16	Cc1ccccc1C(=O)Nc1ccc(C(=O)O)c(Cl)c1 [Example 430, 4-[(2-methylbenzoyl)amino]-2-chloro-benzoic acid]	–
–	28	Cc1ccc(F)cc1C(=O)Nc1ccc(C(=O)O)c(Cl)c1 [Example 419, 4-[(5-fluoro-2-methylbenzoyl)amino]-2-chlorobenzoic acid]	–
–	11	Cc1cc(C(=O)N2Cc3ccc(C(=O)C(Cl)(Cl)Cl)n3Cc3ccccc32)ccc1[N+](=O)[O-] [Example 448]	–
–	19	Cc1cc(C(=O)O)cc(C)c1NC(=O)c1ccc(Cl)cc1Cl [Example 432, 4-[(2,4-dichlorobenzoyl)amino]-3,5-dimethylbenzoic acid]	–
8.5	55	CCOC(=O)c1ccc2n1Cc1ccccc1N(C(=O)c1ccc(N)c(C)c1)C2 [Example 463, ethyl 10,11-dihydro-10-(4-amino-3-methylbenzoyl)-5H-pyrrolo[2,1-c]-[1,4]benzodiazepine-3-carboxylate]	–
–	14	Nc1ccc(C(=O)N2Cc3ccc(C(=O)C(F)(F)F)n3Cc3ccccc32)cc1 [Example 462, 10,11-dihydro-10-(4-aminobenzoyl)[3-(trifluoroacetyl)]-5H-pyrrolo[2,1-c]-[1,4]benzodiazepine]	–
